For 42 compounds, IC50 results are on record in patent US10280149B2, “Therapeutic compounds and uses thereof” (GENENTECH, INC., priority 2015, dated 2019).

Where a name gives a salt, the structure may show the parent alone.

Sequence of Full length KDM2B (Q8NHM5 whole entry): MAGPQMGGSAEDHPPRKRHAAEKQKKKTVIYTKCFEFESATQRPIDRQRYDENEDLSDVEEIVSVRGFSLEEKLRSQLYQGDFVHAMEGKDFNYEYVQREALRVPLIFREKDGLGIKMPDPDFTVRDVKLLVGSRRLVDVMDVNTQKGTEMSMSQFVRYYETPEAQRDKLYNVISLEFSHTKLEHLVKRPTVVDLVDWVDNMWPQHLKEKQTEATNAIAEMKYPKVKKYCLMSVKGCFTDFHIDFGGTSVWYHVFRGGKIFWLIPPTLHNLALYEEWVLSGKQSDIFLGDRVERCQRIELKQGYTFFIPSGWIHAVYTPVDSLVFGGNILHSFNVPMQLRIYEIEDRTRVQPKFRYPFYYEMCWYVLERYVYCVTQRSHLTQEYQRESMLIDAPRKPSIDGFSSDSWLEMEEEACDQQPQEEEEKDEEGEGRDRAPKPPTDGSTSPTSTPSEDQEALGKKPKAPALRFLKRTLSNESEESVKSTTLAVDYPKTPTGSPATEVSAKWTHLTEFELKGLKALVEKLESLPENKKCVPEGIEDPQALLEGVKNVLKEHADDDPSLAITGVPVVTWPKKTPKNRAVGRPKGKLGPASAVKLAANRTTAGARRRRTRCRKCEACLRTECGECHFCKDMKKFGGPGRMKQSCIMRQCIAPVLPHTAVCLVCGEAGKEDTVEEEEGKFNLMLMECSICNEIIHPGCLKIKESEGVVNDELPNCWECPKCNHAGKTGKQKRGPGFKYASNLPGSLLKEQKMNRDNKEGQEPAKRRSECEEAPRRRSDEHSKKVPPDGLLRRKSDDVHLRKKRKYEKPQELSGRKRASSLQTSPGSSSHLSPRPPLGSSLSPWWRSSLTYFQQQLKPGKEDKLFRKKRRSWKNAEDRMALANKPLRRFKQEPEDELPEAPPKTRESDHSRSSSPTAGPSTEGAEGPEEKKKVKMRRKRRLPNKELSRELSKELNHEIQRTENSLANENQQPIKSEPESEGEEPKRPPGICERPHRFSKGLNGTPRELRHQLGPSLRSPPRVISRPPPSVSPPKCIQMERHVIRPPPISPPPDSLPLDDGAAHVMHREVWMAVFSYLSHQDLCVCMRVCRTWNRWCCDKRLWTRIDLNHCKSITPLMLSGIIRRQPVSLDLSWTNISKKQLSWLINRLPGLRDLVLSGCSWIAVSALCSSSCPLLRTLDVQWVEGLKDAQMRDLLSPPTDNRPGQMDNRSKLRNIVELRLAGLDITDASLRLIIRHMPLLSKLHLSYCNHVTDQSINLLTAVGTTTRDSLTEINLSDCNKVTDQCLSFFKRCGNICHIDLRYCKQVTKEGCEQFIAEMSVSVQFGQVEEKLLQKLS

This experiment has as its target Full length KDM2B (Homo sapiens (Human), UniProt Q8NHM5). Kind of experiment: KDM2B TR-FRET assay for determining inhibitor IC50. The note with it: TR-FRET (HTRF), biotin-H3K36me2 peptide substrate, 2-OG 0.3 μM or 6 μM. Format: biochemical. From the text: KDM2B TR-FRET Assay for Determining Inhibitor IC50
The KDM2B TR-FRET Assay described above represents an additional embodiment of the invention.
(In TR-FRET formats the signal depends on donor and acceptor labels being close together.)
A word on the IC50: it is the concentration that inhibits the measured activity by half. Low readings indicate higher potency, high ones lower potency. For `Cn1c(=O)n(C)c2cc(C(=O)C3CCCN(CC4CC4)C3)ccc21` (stereo not drawn) [Example 130, 5-(1-(cyclopropylmethyl)piperidine-3-carbonyl)-1,3-dimethyl-1H-benzo[d]imidazol-2-one], the IC50 came out at 442 nM.

`O=C(c1ccc(-c2ccccn2)cc1)C1CCCN(CC2CC2)C1` (stereo not drawn) [Example 38, [1-(cyclopropylmethyl)-3-piperidyl]-[4-(2-pyridyl)phenyl]methanone] gave an IC50 of 596 nM.

`NC(=O)c1cc(C(=O)C2CCCN(C3CCCC3)C2)cc2ccccc12` (stereo not drawn) [Example 46, 3-(1-cyclopentylpiperidine-3-carbonyl)naphthalene-1-carboxamide] gave an IC50 of 209 nM.

For `CN(C)C(=O)c1ccc2cc(C(=O)C3CCCN(CC4CC4)C3)ccc2c1` (stereo not drawn) [Example 176, 6-(1-(cyclopropylmethyl)piperidine-3-carbonyl)-N,N-dimethyl-2-naphthamide], half-maximal inhibition (IC50) required 214 nM. The IC50 values of the last two compounds are within 1.5-fold of each other.

For the compound `O=C(c1ccc2ccccc2n1)[C@@H]1CCCN(CC2CC2)C1` (stereo in doubt) [Example 117b, (1-(cyclopropylmethyl)piperidin-3-yl)(quinolin-2-yl)methanone], the IC50 amounted to 750 nM.

As for `COc1ccc2cc(C(=O)C3CCCN(C4CC(C#N)C4)C3)ccc2c1` (stereo not drawn) [Example 65, 3-[3-(6-methoxynaphthalene-2-carbonyl)-1-piperidyl]cyclobutanecarbonitrite], the IC50 stood at 309 nM.

`COc1cccc2cc(C(=O)C3CN(CC4CC4)CCC3C)ccc12` (single isomer, unassigned) [Example 136a, (1-(cyclopropylmethyl)-4-methylpiperidin-3-yl)(5-methoxynaphthalen-2-yl)methanone] gave a 50% inhibitory concentration (IC50) of 41.4 nM.

With `COc1cccc(C(=O)[C@H]2CCCN(CC3CC3)C2)c1` (stereo in doubt) [Example 109b, (1-(cyclopropylmethyl)piperidin-3-yl)(3-methoxyphenyl)methanone], half-maximal inhibition (IC50) was put at 1300 nM. Against the preceding compound, the IC50 is about 31-fold higher.

Compound `COc1ccc2cc(C(=O)[C@@H]3CCCN(C4CCCC4)C3)ccc2c1` [Example 9, [(3R)-1-cyclopentyl-3-piperidyl]-(6-methoxy-2-naphthyl)methanone] gave an IC50 of 3000 nM.

In turn, `CCCN1CC[C@H](C)[C@@H](C(=O)c2ccc3cc(C#N)ccc3c2)C1` (stereo in doubt) [Example 163a, 6-(4-methyl-1-propylpiperidine-3-carbonyl)-2-naphthonitrile] showed a 50% inhibitory concentration (IC50) of 993 nM.

`O=C(c1ccc2c(c1)CCCC2)C1CCCN(C2CCC2)C1` (stereo not drawn) [Example 133, (1-cyclobutyl-3-piperidyl)-tetralin-6-yl-methanone] registered an IC50 of 103 nM.

Compound `CCC1CCN(C2CCC2)CC1C(=O)c1ccc2cc(OC)ccc2c1` (single isomer, unassigned) [Example 142d, (1-cyclobutyl-4-ethylpiperidin-3-yl)(6-methoxynaphthalen-2-yl)methanone] yielded an IC50 of 6.56 nM.

`CCC[C@@H]1CCN(C2CCC2)C[C@@H]1C(=O)c1ccc2c(CC#N)c(OC)ccc2c1` (stereo in doubt) [Example 184a, 2-(6-(1-cyclobutyl-4-propylpiperidine-3-carbonyl)-2-methoxynaphthalen-1-yl)acetonitrile]: it took 77.4 nM to reach half-maximal inhibition (IC50).

As for `COc1cccc2cc(C(=O)C3CCCN(CC4CC4)C3)ccc12` (stereo not drawn) [Example 114, (1-(cyclopropylmethyl)piperidin-3-yl)(5-methoxynaphthalen-2-yl)methanone], the half-maximal inhibitory concentration (IC50) is 220 nM. This IC50 lies about 2.8-fold higher than the previous one.

The compound `CNC(=O)c1cc(C(=O)C2CCCN(CC3CC3)C2)cc2ccccc12` (stereo not drawn) [Example 40, 3-[1-(cyclopropylmethyl)piperidine-3-carbonyl]-N-methyl-naphthalene-1-carboxamide] came in with an IC50 of 626 nM.

`C[C@@H]1CCN(C2CCC2)C[C@H]1C(=O)c1ccc2cc(C#N)ccc2c1` (stereo in doubt) [Example 161b, 6-(1-cyclobutyl-4-methylpiperidine-3-carbonyl)-2-naphthonitrile] returned an IC50 of 12.3 nM.

On to `COc1ccc2cc(C(=O)C3CCCN(C4CCC4)C3)ccc2c1CO` (stereo not drawn) [Example 189, (1-cyclobutylpiperidin-3-yl)(5-(hydroxymethyl)-6-methoxynaphthalen-2-yl)methanone hydrochloride], for which half-maximal inhibition (IC50) was put at 55.3 nM.

In turn, `COc1ccc2cc(C(=O)C3CCCN(C4CCOC4)C3)ccc2c1` (stereo not drawn) [Example 15, (6-methoxy-2-naphthyl)-(1-tetrahydrofuran-3-yl-3-piperidyl)methanone] yielded an IC50 of 430 nM.

`C[C@H]1CCN(CC2CC2)C[C@@H]1C(=O)c1ccc2cc(C#N)ccc2c1` (stereo in doubt) [Example 160a, 6-(1-(cyclopropylmethyl)-4-methylpiperidine-3-carbonyl)-2-naphthonitrile]: the IC50 turned out to be 1700 nM.

Compound `O=C(c1ccc(-c2ccccc2)nc1)C1CCCN(CC2CC2)C1` (stereo not drawn) [Example 36, [1-(cyclopropylmethyl)-3-piperidyl]-(6-phenyl-3-pyridyl)methanone] yielded an IC50 of 533 nM.

For `Cc1c(C#N)ccc2cc(C(=O)C3CCCN(CC4CC4)C3)ccc12` (stereo not drawn) [Example 71, 6-(1-(cyclopropylmethyl)piperidine-3-carbonyl)-1-methyl-2-naphthonitrile], the half-inhibitory concentration (IC50) stood at 132 nM.

In turn, `CC1CCN(CC2CC2)CC1C(=O)c1ccc2c(O)cccc2c1` (single isomer, unassigned) [Example 151a, (1-(cyclopropylmethyl)-4-methylpiperidin-3-yl)(5-hydroxynaphthalen-2-yl)methanone] yielded a half-inhibitory concentration (IC50) of 315 nM. Compared with the last compound, the IC50 is about 2.4-fold higher.

The compound `CCN1CCN(C2CCC2)CC1C(=O)c1ccc2cc(OC)ccc2c1` (stereo not drawn) [Example 190] returned a concentration for half-maximal inhibition (IC50) of 979 nM.

In turn, `CC(=O)NCc1cc(C(=O)C2CCCN(CC3CC3)C2)cc2ccccc12` (stereo not drawn) [Example 39, N-[[3-[1-(cyclopropylmethyl)piperidine-3-carbonyl]-1-naphthyl]methyl]acetamide] returned an IC50 of 460 nM.

In turn, `CC[C@H]1CCN(C2CCC2)C[C@@H]1C(=O)c1ccc2c(CC#N)c(OC)ccc2c1` (stereo in doubt) [Example 183b, 2-(6-(1-cyclobutyl-4-ethylpiperidine-3-carbonyl)-2-methoxynaphthalen-1-yl)acetonitrile] returned a 50% inhibitory concentration (IC50) of 2.06 nM.

Compound `O=C(c1cc(F)c2ccccc2c1)C1CCCN(CC2CC2)C1` (stereo not drawn) [Example 26, [1-(cyclopropylmethyl)-3-piperidyl]-(4-fluoro-2-naphthyl)methanone] registered an IC50 of 551 nM.

Turning to `COc1ccc2cc(C(=O)C3CCCN(C4CCOCC4)C3)ccc2c1` (stereo not drawn) [Example 6, (6-methoxy-2-naphthyl)-(1-tetrahydropyran-4-yl-3-piperidyl)methanone], the midpoint of inhibition, the IC50, lay at 2600 nM. This IC50 is about 4.7-fold higher than that of the compound before.

As to `CC1CCN(C2CCCC2)CC1C(=O)c1ccc2cc(C#N)ccc2c1` (stereo not drawn) [Example 162a, 6-(1-cyclopentyl-4-methylpiperidine-3-carbonyl)-2-naphthonitrile], the IC50 was found to be 814 nM.

The compound `Cn1ccc2ccc(C(=O)C3CCCN(CC4CC4)C3)cc21` (stereo not drawn) [Example 119, (1-(cyclopropylmethyl)piperidin-3-yl)(1-methyl-1H-indol-6-yl)methanone] displayed a concentration for half-maximal inhibition (IC50) of 2300 nM.

`CC(O)c1cc(C(=O)C2CCCN(CC3CC3)C2)cc2ccccc12` (stereo not drawn) [Example 67, [1-(cyclopropylmethyl)-3-piperidyl]-[4-(1-hydroxyethyl)-2-naphthyl]methanone]: the IC50 is 148 nM.

Turning to `COc1ccc2cc(C(=O)[C@@H]3CN(CC4CC4)CC[C@H]3C)ccc2c1` (single isomer, unassigned) [Example 137b, (1-(cyclopropylmethyl)-4-methylpiperidin-3-yl)(6-methoxynaphthalen-2-yl)methanone], half-maximal inhibition (IC50) required 92.8 nM.

For the compound `COc1ccc2cc(C(=O)C3CCCN(C4CCC4)C3)ccc2c1CC#N` (stereo not drawn) [Example 55, 2-[6-(1-cyclobutylpiperidine-3-carbonyl)-2-methoxy-1-naphthyl]acetonitrile], the IC50 was 13.2 nM.

Compound `CCCN1CCCC(C(=O)c2ccccc2-c2ccccc2)C1` (stereo not drawn) [Example 102, (2-phenylphenyl)-(1-propyl-3-piperidyl)methanone] yielded an IC50 of 5800 nM.

In the case of `COc1ccc2cc(C(=O)C3CCCN(CCC#N)C3)ccc2c1` (stereo not drawn) [Example 84, 3-[3-(6-methoxynaphthalene-2-carbonyl)-1-piperidyl]propanenitrile], 709 nM corresponded to half-maximal inhibition (IC50). This IC50 lies about 8.2-fold lower than the previous one.

On to `NCc1cc(C(=O)C2CCCN(CC3CC3)C2)cc2ccccc12` (stereo not drawn) [Example 37, [4-(aminomethyl)-2-naphthyl]-[1-(cyclopropylmethyl)-3-piperidyl]methanone], for which it took 620 nM to reach half-maximal inhibition (IC50).

In turn, `O=C(c1cccc(-c2ccccc2)c1)C1CCCN(CC2CC2)C1` (stereo not drawn) [Example 25, [1-(cyclopropylmethyl)-3-piperidyl]-(3-phenylphenyl)methanone] yielded an IC50 of 1400 nM.

As to `COc1ccc2cc(C(=O)[C@@]3(O)CCCN(CC4CC4)C3)ccc2c1` (stereo in doubt) [Example 158a, (1-(cyclopropylmethyl)-3-hydroxypiperidin-3-yl)(6-methoxynaphthalen-2-yl)methanone], the IC50 is 1900 nM.

Turning to `O=C(c1cnc2ccccc2c1)C1CCCN(CC2CC2)C1` (stereo not drawn) [Example 125, (1-(cyclopropylmethyl)piperidin-3-yl)(quinolin-3-yl)methanone], the IC50 is 489 nM.

Consider `Cc1ccc(-c2ccc(C(=O)C3CCCN(CC4CC4)C3)cc2)cc1` (stereo not drawn) [Example 34, [1-(cyclopropylmethyl)-3-piperidyl]-[4-(p-tolyl)phenyl]methanone], for which the IC50 is 402 nM.

The compound `COc1ccc2cc(C(=O)C3CN(C4CCC4)CCC3c3ccccc3)ccc2c1` (single isomer, unassigned) [Example 141b, (1-cyclobutyl-4-phenylpiperidin-3-yl)(6-methoxynaphthalen-2-yl)methanone] returned an IC50 of 98.7 nM.

`O=C(c1cnn(-c2ccccc2)c1)C1CCCN(CC2CC2)C1` (stereo not drawn) [Example 124, (1-(cyclopropylmethyl)piperidin-3-yl)(1-phenyl-1H-pyrazol-4-yl)methanone] yielded an IC50 of 656 nM.

Compound `O=C(c1ccc(Oc2ccccc2)cc1)[C@H]1CCCN(CC2CC2)C1` [Example 31, [(3S)-1-(cyclopropylmethyl)-3-piperidyl]-(4-phenoxyphenyl)methanone] came in with an IC50 of 136 nM. This IC50 is about 4.8-fold lower than that of the compound before.
